Paper PMC9505254 (Pathogens, 2022)
Entries after “also recorded” stand apart in the source; their conditions may differ.

Experiments:
S. aureus biofilm cells = assay: ROS overproduction (DCFH-DA, fluorescence microscopy); conditions: ciprofloxacin alone at 6.2, 0.2, 25 or 0.02 µg mL−1 (Figures 4 and 5)
[1] = tested on: S. aureus (ATCC 25923) preformed biofilm; assay: Reduction of preformed biofilm mass (crystal violet); type: cell-based, Staphylococcus aureus
Experimental: After the incubation period, the supernatant was removed carefully from each well and washed one time with sterile NaCl 0.15 M solution. […] The absorbances were obtained via a microplate reader (BioTek^TM Epoch, BioTek Instruments, Inc., Winooski, VT, USA) at 600 nm. The experiment was repeated three times. The assay to observe the preformed biofilm reduction was conducted the same as described above but with some adjustments. […] The microplates were incubated in the dark, at 37 ℃, for 24 h. After incubation, the biofilm was washed, dried, and stained, and absorbance was taken as above.

[2] = tested on: S. aureus (ATCC 25923) biofilm; assay: Inhibition of biofilm formation (crystal violet); type: cell-based; conditions: Staphylococcus aureus, ATCC25923, alone at 0.2 µg mL−1, 48 h, 37 °C, A600, triplicate
Experimental: The assay was made in flat-bottom 96-well polystyrene microplates as described by Bezerra et al.. The cell suspension was prepared using a single colony of S. aureus from a Petri dish with Mueller–Hinton broth (stock bacteria). The colony was transferred to Mueller–Hinton broth and incubated at 37 ℃ for 24 h. After, the cell suspension was standardized to a concentration of 10^6 cells mL^−1. […] The combination of peptide and antibiotic was made from the highest concentration of the peptide combined with the lowest antibiotic concentration and vice versa. After the incubation period, the supernatant was removed carefully from each well and washed one time with sterile NaCl 0.15 M solution. […] The absorbances were obtained via a microplate reader (BioTek^TM Epoch, BioTek Instruments, Inc., Winooski, VT, USA) at 600 nm. The experiment was repeated three times.

[3] = tested on: type-O human erythrocytes
[4] = tested on: type-A human erythrocytes
[5] = tested on: type-B human erythrocytes

Compound	ROS overproduction (S. aureus biofilm cells)	reduction of preformed biofilm ([1]; alone at 6.2 µg mL−1, 24 h biofilm, 24 h treatment, 37 °C, crystal violet, A600)	reduction of preformed biofilm ([1]; alone at 25 µg mL−1)	reduction of the biomass of preformed biofilm ([1]; ciprofloxacin alone at the Figure 1D concentrations (0.02, 0.39, 0.78, 6.2 µg mL−1))	reduction of the biomass of preformed biofilm ([1]; each alone at the concentrations of the two Figure 1C combinations (RcAlb-PepI 0.04 and 0.2; ciprofloxacin 25 and 6.2 µg mL−1))	inhibition at 0.2 µg/mL [2]	% Hemolysis Type-O Blood [3]	% Hemolysis Type-A Blood [4]	% Hemolysis Type-B Blood [5]
O=C(O)c1cn(C2CC2)c2cc(N3CCNCC3)c(F)cc2c1=O [Ciprofloxacin]	did not induce ROS; also recorded: not able to induce ROS accumulation	0%	8%	not effective	not effective	10%			
Triton X-100							100 ± 0.005%	100 ± 0.001%	100 ± 0.001%
